Source: patent EP0731697B1, “SSI TYRPHOSTINS AND PHARMACEUTICAL COMPOSITIONS” (priority 1993, dated 1995)
Read-outs that look alike come from different tables or passages of the source.

What was measured:
mice [1] = test system: mice
TNF-α [2] = test: LPS-induced production of TNF-α by activated murine peritoneal macrophages in vitro
Method: The amount of TNF-α was quantitated by assessing the extent of killing of the TNF-α sensitive cell line (A9) essentially as described by Ruff and Gilford, G. E. J. Immunol. […] Briefly, mouse A9 fibroblasts were plated in 96-well flat-bottom micro-titer plates at 30,000 cells /0.1 ml to establish a dense monolayer. After incubation for 24 hr at 37 C in a humidified 5% CO2 atmosphere, cycloheximide was added to a final concentration of 50 ug/ml and 100 ul of serially diluted test samples were added to the wells. After incubation for additional 18 hr the supernatants were carefully aspirated, the monolayer were washed twice with PBS and 200 ul of neutral red solution (0.02%) was added. After incubation for 2 hr, cells were washed and the dye that had been absorbed by the live cells was extracted using 200 ul of 50% ethanol. The concentration of the dye was determined by an ELISA autoreader using a 550 nm filter. Murine TNF-α ELISA kit from ENDOGEN Inc., was used for quancitation of murine TNF-α.
Mice were injected i.p. with 1 ml sodium periodate (5mM). Three to 4 days later, macrophages were washed from the peritoneal cavity with PBS. After centrifugation at 170g for 10 min at 40° C, the cell pellet was resuspended in RPMI 1640 containing 10% heat-inactivated new born calf serum. Adherent macrophage monolayers were obtained by plating the cells in 96-well plastic trays at 4x10^5 cells/well for 2 hr at 37°C in 5% CO2/air. Nonadherent cells were removed by suction and complete medium was added.

[3] = test system: murine peritoneal macrophages; test: NO2- production by periodate-activated murine peritoneal macrophages; assay type: cell-based
Method: Nitrite (NO2-) levels were determined in supernatants at the time indicated, as described herein. (Table 5) Values are expressed as means of triplicate cultures. […] Two additional experiments yielded similar results.
NO2- the product of NO oxidation is used to determine NO produced. Nitrite concentration in supernatants of macrophages was measured by a microplate assay method. 100 ul aliquots of supernatants were incubated with an equal volume of Griess reagent (1% sulfanilamide/O.1% naphthylethylene diamine dihydrochloride/2.5% H3PO4) at room temperature for 10 min. The absorbance at 550nm was determined in a microplate reader. Sodium nitrite was used as a standard.
Mice were injected i.p. with 1 ml sodium periodate (5mM). Three to 4 days later, macrophages were washed from the peritoneal cavity with PBS. After centrifugation at 170g for 10 min at […], the cell pellet was resuspended in RPMI 1640 containing 10% heat-inactivated new born calf serum. Adherent macrophage monolayers were obtained by plating the cells in 96-well plastic trays at 4x10^5 cells/well for 2 hr at 37°C in 5% CO2/air. Nonadherent cells were removed by suction and complete medium was added. […]

mice [4] = test: TNF-α induced lethal toxicity in actinomycin D treated mice; assay type: in vivo; conditions: actinimycin D:TNF 20 to 2.5 and 15 to 1.0, SSI 3, 400 mg/mouse i.p. 2 hr prior to TNF, 5 mice
Method: The effect of SSI 3 on lethal toxicity in mice induced by TNF-α was investigated. Mice are relatively resistant to TNF-α, when applied as a single agent. Pretreatment of mice with actinomycin D renders them extremely sensitive to TNF. (Wallach et al., 140 J. Immun. 2994, 1988). SSI 3 delayed TNF-α induced lethal toxicity in actinomycin D treated mice by approximately 15 hours at two ratios of actinimycin D:TNF (20 to 2.5 and 15 to 1.0). Mice were injected, i.p., with TNF at 0 time. SSI 3, […]/mouse was administered (i.p.) 2 hr, and actinomycin D (ACT.D) was given (i.p.) 30 min prior to TNF injection. Each experimental group contained 5 mice. Injection of actinomycin D alone causes death in 2 out of 5 animals after 120 hours and 3 out of 5 after 144 hours.

TNF-α [5] = test: LPS induced increase in serum TNF-α levels in mice; assay type: in vivo; conditions: for serum TNF-α levels: 400 ug/mouse i.p. 2 hrs prior to LPS, bled after 2 hours
Description: TNF-α was implicated to mediate many of the toxic effect of LPS. For example, the effect of SSI 3 on serum TNF-α levels in mice which had been treated with LPS was investigated. LPS induced a rapid increase in serum TNF-α levels. […] […] The bioassay gave somewhat higher levels compared to the ELISA. This finding may indicate that the serum from LPS-treated mice contained in addition to TNF-α, other cytotoxic factors.
The amount of TNF-α was quantitated by assessing the extent of killing of the TNF-α sensitive cell line (A9) essentially as described by Ruff and Gilford, G. E. J. Immunol. 125, 1671-1677, (1980). Briefly, mouse A9 fibroblasts were plated in 96-well flat-bottom micro-titer plates at 30,000 cells /0.1 ml to establish a dense monolayer. After incubation for 24 hr at 37 C in a humidified 5% CO2 atmosphere, cycloheximide was added to a final concentration of 50 ug/ml and 100 ul of serially diluted test samples were added to the wells. After incubation for additional 18 hr the supernatants were carefully aspirated, the monolayer were washed twice with PBS and 200 ul of neutral red solution (0.02%) was added. After incubation for 2 hr, cells were washed and the dye that had been absorbed by the live cells was extracted using 200 ul of 50% ethanol. The concentration of the dye was determined by an ELISA autoreader using a 550 nm filter. Murine TNF-α ELISA kit from ENDOGEN Inc., was used for quancitation of murine TNF-α.

mice [6] = test: LPS-induced lethal toxicity in mice
PDGFR = conditions: even at concentrations above 100 uM; cited from earlier work
EGF receptor = EGF receptor (Homo sapiens, UniProt P00533); conditions: even at concentrations above 100 uM; cited from earlier work
p42^MAPK = test: LPS-induced tyrosine phosphorylation in macrophages; assay type: cell-based; conditions: murine peritoneal macrophages pre-treated with protective concentrations
Description: LPS-induced tyrosine phosphorylation of a 42 kD protein in murine peritoneal macrophages was inhibited by pre-treating the cells as before with protective concentrations of SSI 3. This protein band was identified as p42^MAPK. […] (Stefanova et al., supra.)

Her-2/neu receptor = Her-2/neu receptor (Homo sapiens, UniProt P04626); conditions: even at concentrations above 100 uM; cited from earlier work
[7] = test system: Murine fibroblastic cells (A9)
Method: Tyrphostins at different concentration were added 2 hr prior to TNF. After 24 hrs cells viability was determined by vital staining using neutral red.
Recombinant human TNFα is added to a mouse fibroblastic cell line (A9), cultured in the presence of cyclohexamine and cell viability is monitored after 20 hours. […] The percentage of live cells was measured from 2 hours prior to administration until 4 hours after administration for a control and for TNF at concentrations of 0.2 ng/ml, 0.05 ng/ml, and 1.0 ng/ml.

Chain of EGF receptor (P00533 25-1210): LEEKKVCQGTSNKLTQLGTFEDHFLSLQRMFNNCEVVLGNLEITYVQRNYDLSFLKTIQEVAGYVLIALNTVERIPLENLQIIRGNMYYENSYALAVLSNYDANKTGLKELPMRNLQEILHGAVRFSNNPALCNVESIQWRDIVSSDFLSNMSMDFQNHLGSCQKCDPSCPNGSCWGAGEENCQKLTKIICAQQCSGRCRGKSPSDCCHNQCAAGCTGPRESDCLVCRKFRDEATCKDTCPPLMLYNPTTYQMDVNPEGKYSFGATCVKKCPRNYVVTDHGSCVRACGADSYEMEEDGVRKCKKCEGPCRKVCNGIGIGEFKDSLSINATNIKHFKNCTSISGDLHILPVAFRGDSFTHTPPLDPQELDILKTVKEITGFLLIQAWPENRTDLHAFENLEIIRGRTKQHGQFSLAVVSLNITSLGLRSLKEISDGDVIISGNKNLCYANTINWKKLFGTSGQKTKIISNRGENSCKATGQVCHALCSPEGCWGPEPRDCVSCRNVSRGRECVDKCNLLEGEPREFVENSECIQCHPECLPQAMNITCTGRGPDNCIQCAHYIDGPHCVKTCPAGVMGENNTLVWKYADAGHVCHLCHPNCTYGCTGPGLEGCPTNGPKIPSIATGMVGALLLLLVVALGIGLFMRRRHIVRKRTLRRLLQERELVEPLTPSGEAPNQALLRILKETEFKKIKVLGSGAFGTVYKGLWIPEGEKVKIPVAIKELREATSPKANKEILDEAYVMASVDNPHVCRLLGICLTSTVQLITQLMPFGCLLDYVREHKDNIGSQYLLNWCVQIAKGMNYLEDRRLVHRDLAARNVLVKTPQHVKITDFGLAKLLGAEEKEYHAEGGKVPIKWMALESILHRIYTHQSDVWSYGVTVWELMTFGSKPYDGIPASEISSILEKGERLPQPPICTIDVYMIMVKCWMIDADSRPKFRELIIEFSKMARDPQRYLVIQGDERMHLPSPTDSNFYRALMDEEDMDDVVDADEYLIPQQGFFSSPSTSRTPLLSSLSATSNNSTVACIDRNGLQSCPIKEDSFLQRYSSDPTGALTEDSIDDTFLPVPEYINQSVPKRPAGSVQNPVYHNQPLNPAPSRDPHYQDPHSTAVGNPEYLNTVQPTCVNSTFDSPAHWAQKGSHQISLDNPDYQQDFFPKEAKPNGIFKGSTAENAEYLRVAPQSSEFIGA
Chain of Her-2/neu receptor (P04626 23-1255): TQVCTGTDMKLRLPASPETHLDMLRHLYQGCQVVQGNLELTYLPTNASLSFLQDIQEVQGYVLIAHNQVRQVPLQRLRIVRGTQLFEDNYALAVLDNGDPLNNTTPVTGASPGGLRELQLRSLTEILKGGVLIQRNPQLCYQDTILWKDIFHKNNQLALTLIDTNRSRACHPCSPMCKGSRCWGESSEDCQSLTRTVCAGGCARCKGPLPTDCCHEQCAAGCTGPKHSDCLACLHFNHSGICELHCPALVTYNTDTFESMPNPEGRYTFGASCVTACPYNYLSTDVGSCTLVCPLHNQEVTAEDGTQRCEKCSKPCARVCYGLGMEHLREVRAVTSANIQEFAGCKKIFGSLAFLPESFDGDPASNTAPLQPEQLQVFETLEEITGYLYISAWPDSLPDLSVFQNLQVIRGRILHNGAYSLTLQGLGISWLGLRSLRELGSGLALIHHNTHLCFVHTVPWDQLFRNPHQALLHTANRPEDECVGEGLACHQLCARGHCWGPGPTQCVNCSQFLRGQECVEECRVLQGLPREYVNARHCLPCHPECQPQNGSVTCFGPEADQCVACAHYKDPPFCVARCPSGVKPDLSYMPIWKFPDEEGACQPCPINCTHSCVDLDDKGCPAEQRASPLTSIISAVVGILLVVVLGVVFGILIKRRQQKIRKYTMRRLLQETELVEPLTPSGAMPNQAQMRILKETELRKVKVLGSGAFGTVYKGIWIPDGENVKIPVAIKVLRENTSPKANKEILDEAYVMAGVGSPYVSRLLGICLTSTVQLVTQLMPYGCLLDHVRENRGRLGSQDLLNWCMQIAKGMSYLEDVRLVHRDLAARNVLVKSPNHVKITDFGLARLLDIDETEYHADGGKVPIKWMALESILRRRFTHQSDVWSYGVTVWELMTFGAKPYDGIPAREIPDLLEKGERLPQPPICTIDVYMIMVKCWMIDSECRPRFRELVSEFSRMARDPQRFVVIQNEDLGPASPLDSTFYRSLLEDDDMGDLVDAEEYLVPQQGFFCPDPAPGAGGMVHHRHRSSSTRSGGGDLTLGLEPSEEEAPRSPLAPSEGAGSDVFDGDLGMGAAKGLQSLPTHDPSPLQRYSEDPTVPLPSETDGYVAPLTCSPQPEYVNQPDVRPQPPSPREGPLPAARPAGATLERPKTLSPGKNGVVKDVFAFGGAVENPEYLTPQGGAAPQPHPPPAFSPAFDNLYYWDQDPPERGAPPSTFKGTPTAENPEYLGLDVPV

## N#CC(C#N)=Cc1ccc([N+](=O)[O-])c(O)c1 [SSI 3]
Mice [1]; 200 ug/mouse, LPS 1.5 mg/mouse
  mice survived: 3 out of 5 mice
Mice [1]; 12 h
  mice (still alive): 20 mice
Mice [1]; 36 h
  mice (still alive): 18 mice
Mice [1]; 60 h
  mice (still alive): 18 mice
TNF-α [2]; LPS +
  TNF-α: <5 pg/mL
TNF-α [2]; LPS -
  TNF-α: <5 pg/mL
TNF-α [2]; among the tyrphostins tested
  ability to inhibit LPS-induced production of TNF-α by activated murine peritoneal macrophages in vitro: most potent
[3]; 50 um, added 2 hours prior to LPS, 24 hours
  LPS induced NO production: markedly inhibit
[3]; 50 um, from an initial level of 70 uM (no LPS), 24 hours
  NO production: ~30 µM
[3]; 50 um, from an initial level of 40 (10 ug/ml of LPS), 24 hours
  NO production: approximately 20 uM
[3]; LPS (10 mg/ml)
  NO2- production in unstimulated and LPS-stimulated periodate-activated murine macrophages: effectively inhibited
[3]; SSI 20 uM, LPS 10 ug, 1 DAY
  NO2- Production by Macrophages: 30,2 µg
[3]; SSI 20 uM, LPS 10 ug, 2 DAY
  NO2- Production by Macrophages: 91 µg
[3]; SSI 20 uM, LPS 10 ug, 3 DAY
  NO2- Production by Macrophages: 90,1 µg
[3]; SSI 20 uM, no LPS, 1 DAY
  NO2- Production by Macrophages: 11,8 µg
[3]; SSI 20 uM, no LPS, 2 DAY
  NO2- Production by Macrophages: 17,5 µg
[3]; SSI 20 uM, no LPS, 3 DAY
  NO2- Production by Macrophages: 7,5 µg
[3]; SSI 50uM, LPS 10 ug, 1 DAY
  NO2- Production by Macrophages: 6,1 µg
[3]; SSI 50uM, LPS 10 ug, 2 DAY
  NO2- Production by Macrophages: 31,4 µg
[3]; SSI 50uM, LPS 10 ug, 3 DAY
  NO2- Production by Macrophages: 19,2 µg
[3]; SSI 50 uM, no LPS, 1 DAY
  NO2- Production by Macrophages: 5 µg
[3]; SSI 50 uM, no LPS, 2 DAY
  NO2- Production by Macrophages: 8,6 µg
[3]; SSI 50 uM, no LPS, 3 DAY
  NO2- Production by Macrophages: 4,8 µg
Mice [4]
  delay of TNF-α induced lethal toxicity: approximately 15 hours
TNF-α [5]; higher of two printed values, presumably bioassay, LPS alone 14
  serum TNF-α levels: 4 ng/mL
TNF-α [5]; lower of two printed values, presumably ELISA, LPS alone 7
  serum TNF-α levels: 3 ng/mL
TNF-α [5]; LPS 200 µg/mouse, AG 300 µg/mouse 2 hrs prior to LPS, 1hr, mean (two single values)
  Serum TNF-α: 2.8 (1.2, 4.4) ng/ml
TNF-α [5]; LPS 200 µg/mouse, AG 300 µg/mouse 2 hrs prior to LPS, 2hr, mean (two single values)
  Serum TNF-α: 3.6 (2.7, 4.5) ng/ml
TNF-α [5]; no LPS (-), AG 300 µg/mouse, 1hr
  Serum TNF-α: 16.3 ng/mL
Mice [6]; 400 ug/mouse i.p. two hrs prior to LPS 1.5 mg/mouse, within 5 days, 2 mice out of 20, LPS alone 95%
  extent of lethality: 10%
Mice [6]; LPS 1.5 mg/mouse, administered 2 hours prior to LPS
  minimal dose that provided essentially full protection against LPS induced lethal toxicity: 400 ug/mouse
Mice [6]; administered 2 hours after LPS
  protective effect on the LPS-induced lethal toxicity: essentially no protective effect
Mice [6]; administered at the time of LPS treatment, compared with 2 hr prior to LPS
  preventing the lethal toxicity: less effective
Mice [6]; doses of 100 and 200 ug/mouse, 5 mice over 6 days
  protection against LPS induced lethal toxicity: partial protection
PDGFR
  effect on PDGFR: no effect
EGF receptor
  effect on EGF receptor: no effect
p42^MAPK
  LPS-induced tyrosine phosphorylation of a 42 kD protein: inhibited
Her-2/neu receptor
  effect on Her-2/neu receptor: no effect
[7]
  blocking TNF-α induced cytotoxicity in vitro: active
[7]; A9 cells, 24 hours with TNF, cyclohexamide 50 ug/ml, tyrphostins added 2 hr prior to TNF, neutral red
  TNF-α induced cytotoxicity, in vitro: reduced
[7]; SSI 3 50 uM, SSI 16 2 uM, SSI 17 2 and 10 uM, A9 cells with cyclohexamine, viability after 20 hours, TNF 0.2, 0.05 and 1.0 ng/ml
  TNF toxicity (percentage of live cells): prevent TNF toxicity to different degrees
